From paper PMC12529303, “A phase I study of AZD8186 in combination with docetaxel in patients with PTEN-mutated or PIK3CB-mutated advanced solid tumors” (ESMO Open, 2025)
Like-named read-outs stand apart in the source and are kept apart here.

Tests used:
clinical = conditions: human, in vivo
Method: (§1) Plasma samples were collected at predefined time points based upon the dosing schedules for docetaxel and AZD8186. Cycle 1, day 1 (C1D1) pretreatment baseline measurements were collected for both drugs. For docetaxel, samples were collected as follows: C2D1, pretreatment, 30 min and 55 min after the start of the docetaxel infusion, and 2 h and 5 h after the end of the docetaxel infusion; C2D2, ∼24 h after the start of the docetaxel infusion. For AZD8186, samples were collected as follows: C2D1, pretreatment and 1 h, 3 h, and 6 h after dosing; C2D2, ∼24 h after dose and before the next AZD8186 dose. Starting from cycle 3, a day 1 pretreatment sample was collected at each scheduled visit.
Plasma concentrations of docetaxel were quantified using a validated liquid chromatography and tandem mass spectrometry.[36] The lower limit of quantitation for docetaxel was 0.5 ng/ml. AZD8186 plasma concentration was quantified using a validated ultraperformance liquid chromatography and tandem mass spectrometry method with a 5-2000 ng/ml dynamic range. […]
Statistical analysis for pharmacokinetic (PK) studies was carried out using Graph Pad Prism software version 9.4.1 (GraphPad Software, Inc., Boston, MA). PK parameters were evaluated statistically by Kruskal–Wallis test. Significance was determined at a level of P < 0.05. […]

[1] = tested on: castration-resistant prostate cancer with PTEN loss; set-up: method as in PMID 28645941; conditions: cited from earlier work
[2] = AZD8186 plasma pharmacokinetics (UPLC-MS/MS, noncompartmental); type: in vivo, human; conditions: for Cmin,ss / Cmax / Tmax / AUC(0-t): plasma; for Cmax / Tmax / AUC(0-t): human, oral, C2D1; for AUC(0-t): read-out: AUC0-6h
Method: as §1
Plasma concentrations of docetaxel were quantified using a validated liquid chromatography and tandem mass spectrometry.[36] The lower limit of quantitation for docetaxel was 0.5 ng/ml. AZD8186 plasma concentration was quantified using a validated ultraperformance liquid chromatography and tandem mass spectrometry method with a 5-2000 ng/ml dynamic range. Assays were carried out at the Sidney Kimmel Comprehensive Cancer Center Analytical Pharmacology Core Laboratory at Johns Hopkins University.
Statistical analysis for pharmacokinetic (PK) studies was carried out using Graph Pad Prism software version 9.4.1 (GraphPad Software, Inc., Boston, MA). PK parameters were evaluated statistically by Kruskal–Wallis test. Significance was determined at a level of P < 0.05. Between-group comparisons were conducted using the Wilcoxon signed rank test.

[3] = tested on: PTEN-null and PI3Kβ-driven preclinical models of breast and prostate cancer; set-up: method as in PMID 32215185, PMID 25398829; conditions: in vitro; cited from earlier work
xenograft mouse models = tested on: xenograft mouse models; set-up: method as in PMID 32215185, PMID 25398829; conditions: cited from earlier work
advanced solid tumors = tested on: advanced solid tumors; set-up: method as in PMID 35247924; conditions: 60 mg b.i.d. and 120 mg b.i.d.; cited from earlier work
[4] = TAC-1B AZD8186 reduced: docetaxel 45 mg/m^2, AZD8186 30 mg, n=1
[5] = TAC1+GF: docetaxel 75 mg/m^2, AZD8186 60 mg, n=3
[6] = TAC-1: docetaxel 75 mg/m^2, AZD8186 60 mg, n=1
[7] = TAC-1B: docetaxel 60 mg/m^2, AZD8186 60 mg, n=1
[8] = TAC-2: docetaxel 75 mg/m^2, AZD8186 120 mg, n=7

Work on `CC(=O)O[C@@]12CO[C@@H]1C[C@H](O)[C@@]1(C)C(=O)[C@H](O)C3=C(C)[C@@H](OC(=O)[C@H](O)[C@@H](NC(=O)OC(C)(C)C)c4ccccc4)C[C@@](O)([C@@H](OC(=O)c4ccccc4)[C@H]21)C3(C)C` [docetaxel] yielded a Tmax (clinical) of 0.92 h.
In the case of `Cc1c(Cn2c(C)nc3c(C(=O)O)cc(N4CCOCC4)cc32)cccc1C(F)(F)F` [GSK2636771], the responses [1] is given as “only anecdotal responses”.
For `C[C@@H](Nc1cc(F)cc(F)c1)c1cc(C(=O)N(C)C)cc2c(=O)cc(N3CCOCC3)oc12` [AZD8186], the “steady-state trough concentrations across dosing cohorts” value ([2]; Kruskal-Wallis) was “not significantly different”, the “Cmin,ss” value ([2]; TAC1+GF: docetaxel 75 mg/m^2, AZD8186 60 mg, n=1) was 176.0 (1) ng/mL and the “Cmin,ss” value ([2]; TAC-1: docetaxel 75 mg/m^2, AZD8186 60 mg, mean ± SD, n=3) was 149.8 ± 77.2 (3) ng/mL. For the same molecule, the “Cmin,ss” value ([2]; TAC-1 AZD8186 reduced: docetaxel 60 mg/m^2, AZD8186 30 mg, n=1) was 66.0 (1) ng/mL, the “Cmin,ss” value [2, 4] was 130.0 (1) ng/mL and the “Cmin,ss” value ([2]; TAC-1B: docetaxel 60 mg/m^2, AZD8186 60 mg, mean ± SD, n=3) was 83.5 ± 55.1 (3) ng/mL. The “Cmin,ss” value ([2]; TAC-2: docetaxel 75 mg/m^2, AZD8186 120 mg, mean ± SD, n=6) was 76.8 ± 49.2 (6) ng/mL, the Cmax ([2]; TAC1+GF: docetaxel 75 mg/m^2, AZD8186 60 mg) was 166 ng/mL and the Tmax [2, 5] was 2.76 h. The AUC(0-t) [2, 5] was 224 ng·h/mL, the Cmax ([2]; TAC-1: docetaxel 75 mg/m^2, AZD8186 60 mg) was 464 ng/mL and the Tmax [2, 6] was 3.87 h. It also gave an AUC(0-t) [2, 6] of 1110 ng·h/mL, a Cmax [2, 4] of 253 ng/mL and a Tmax [2, 4] of 8.43 h. The AUC(0-t) [2, 4] was 789 ng·h/mL, the Cmax [2, 7] was 285 ng/mL and the Tmax [2, 7] was 4.75 h. The AUC(0-t) [2, 7] was 808 ng·h/mL, the Cmax ([2]; TAC-2: docetaxel 75 mg/m^2, AZD8186 120 mg) was 532 ng/mL and the Tmax [2, 8] was 4.43 h. The AUC(0-t) [2, 8] was 1800 ng·h/mL, the “PI3K signaling and viability” value [3] was “inhibited PI3K signaling and viability” and the “single-agent activity in vivo” value (xenograft mouse models) was “limited single-agent activity”. For the same molecule, the “tolerability and target inhibition in plasma” value (advanced solid tumors) was “tolerable with dose-dependent target inhibition in plasma”.
